The text below walks through data of patent US20140235576A1, “PYRROLIDINE-2-CARBOXYLIC ACID DERIVATIVES AS IGLUR ANTAGONISTS” (Kobenhavns Universitet, priority 2013, published 2014).

Where two headings read alike, the source gives them in different places. No end group written: not given here.

Assay [1] has as its target AMPA receptors. Conditions: native iGluR; values taken from reference 49; cited from earlier work.
The target of assay [2] is KA receptors. Particulars: native iGluR; values taken from reference 49; cited from earlier work.
Assay [3] concerns the target NMDA receptors. Particulars: native iGluR; values taken from reference 49; cited from earlier work.
For assay [4], the target named is AMPA receptors. The assay is described as follows: Radioligand binding at native AMPA receptors (rat synaptosomes). Conditions: native iGluRs. The text has this: (§1) Analog 2 was characterized pharmacologically in radio ligand binding assays at native iGluRs (rat synaptosomes) and cloned homomeric subtypes, GluK1-3 (Table 1).
Assay [5] has as its target KA receptors. The assay is described as follows: Radioligand binding at native KA receptors (rat synaptosomes). Particulars: native iGluRs.
Source text: as §1

Assay [6] deals with NMDA receptors. The assay is described as follows: Radioligand binding at native NMDA receptors (rat synaptosomes). Particulars: native iGluRs.
Source text: as §1

The next assay deals with GluK1 (UniProt P22756). The assay is described as follows: Radioligand binding at cloned homomeric GluK1. Conditions: cloned homomeric subtype.
Source text: as §1

Another assay has as its target GluK2 (UniProt P42260). The assay is described as follows: Radioligand binding at cloned homomeric GluK2. Conditions: cloned homomeric subtype.
Source text: as §1

For another assay, the target named is T1, GluK3 (Rattus norvegicus, UniProt P42264).
T1 construct: expressed in transfected cells
The assay is described as follows: Radioligand binding at cloned homomeric GluK3. Particulars: cloned homomeric subtype.
Source text: as §1

A further assay relates to GluN1/GluN2A-D. As to the kind of experiment: Functional assay for subtypes GluN1/GluN2A-D. It is filed as biochemical.
The target of another assay is GluN1/GluN2B (Homo sapiens, UniProt Q13224). Particulars: cited from earlier work.
Chain of GluN1/GluN2B (Q13224 27-1484, species assumed, other chains not shown): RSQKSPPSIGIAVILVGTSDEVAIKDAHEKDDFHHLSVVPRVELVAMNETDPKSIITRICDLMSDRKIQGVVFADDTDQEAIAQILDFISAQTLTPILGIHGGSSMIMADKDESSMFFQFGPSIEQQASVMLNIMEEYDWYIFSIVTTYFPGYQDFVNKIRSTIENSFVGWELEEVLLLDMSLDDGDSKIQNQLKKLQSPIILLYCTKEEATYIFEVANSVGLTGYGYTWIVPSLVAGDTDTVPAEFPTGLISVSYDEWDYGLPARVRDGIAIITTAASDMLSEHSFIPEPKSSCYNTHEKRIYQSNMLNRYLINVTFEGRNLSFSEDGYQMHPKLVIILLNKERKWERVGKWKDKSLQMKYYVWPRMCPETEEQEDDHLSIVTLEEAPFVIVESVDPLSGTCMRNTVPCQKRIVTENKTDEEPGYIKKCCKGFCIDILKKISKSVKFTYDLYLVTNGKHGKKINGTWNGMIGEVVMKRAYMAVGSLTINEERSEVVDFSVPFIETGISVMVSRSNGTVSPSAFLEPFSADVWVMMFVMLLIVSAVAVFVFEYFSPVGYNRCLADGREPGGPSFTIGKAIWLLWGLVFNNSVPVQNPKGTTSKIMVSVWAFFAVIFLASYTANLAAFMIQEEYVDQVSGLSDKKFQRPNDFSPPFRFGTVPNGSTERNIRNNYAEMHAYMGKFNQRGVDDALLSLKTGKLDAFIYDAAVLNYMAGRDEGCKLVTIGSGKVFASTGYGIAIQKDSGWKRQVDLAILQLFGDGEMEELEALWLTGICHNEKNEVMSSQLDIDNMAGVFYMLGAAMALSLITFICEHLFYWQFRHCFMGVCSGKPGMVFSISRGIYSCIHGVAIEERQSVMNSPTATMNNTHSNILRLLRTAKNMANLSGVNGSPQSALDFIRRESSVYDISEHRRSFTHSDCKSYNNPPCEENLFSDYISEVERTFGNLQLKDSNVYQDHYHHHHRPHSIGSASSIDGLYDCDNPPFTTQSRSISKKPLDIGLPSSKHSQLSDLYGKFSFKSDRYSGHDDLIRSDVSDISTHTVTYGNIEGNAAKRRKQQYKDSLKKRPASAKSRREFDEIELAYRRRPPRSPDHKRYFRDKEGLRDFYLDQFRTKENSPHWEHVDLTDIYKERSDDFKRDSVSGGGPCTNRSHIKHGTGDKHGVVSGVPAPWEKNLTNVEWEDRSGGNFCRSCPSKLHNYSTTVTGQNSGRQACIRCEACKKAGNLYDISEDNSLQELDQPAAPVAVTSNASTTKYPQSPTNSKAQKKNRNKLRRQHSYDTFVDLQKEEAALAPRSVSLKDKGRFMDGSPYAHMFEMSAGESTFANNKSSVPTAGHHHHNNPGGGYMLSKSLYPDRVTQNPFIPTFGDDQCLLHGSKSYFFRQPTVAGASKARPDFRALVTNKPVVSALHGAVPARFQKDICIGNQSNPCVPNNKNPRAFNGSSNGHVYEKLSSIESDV

T1 sequence (P42264 32-919): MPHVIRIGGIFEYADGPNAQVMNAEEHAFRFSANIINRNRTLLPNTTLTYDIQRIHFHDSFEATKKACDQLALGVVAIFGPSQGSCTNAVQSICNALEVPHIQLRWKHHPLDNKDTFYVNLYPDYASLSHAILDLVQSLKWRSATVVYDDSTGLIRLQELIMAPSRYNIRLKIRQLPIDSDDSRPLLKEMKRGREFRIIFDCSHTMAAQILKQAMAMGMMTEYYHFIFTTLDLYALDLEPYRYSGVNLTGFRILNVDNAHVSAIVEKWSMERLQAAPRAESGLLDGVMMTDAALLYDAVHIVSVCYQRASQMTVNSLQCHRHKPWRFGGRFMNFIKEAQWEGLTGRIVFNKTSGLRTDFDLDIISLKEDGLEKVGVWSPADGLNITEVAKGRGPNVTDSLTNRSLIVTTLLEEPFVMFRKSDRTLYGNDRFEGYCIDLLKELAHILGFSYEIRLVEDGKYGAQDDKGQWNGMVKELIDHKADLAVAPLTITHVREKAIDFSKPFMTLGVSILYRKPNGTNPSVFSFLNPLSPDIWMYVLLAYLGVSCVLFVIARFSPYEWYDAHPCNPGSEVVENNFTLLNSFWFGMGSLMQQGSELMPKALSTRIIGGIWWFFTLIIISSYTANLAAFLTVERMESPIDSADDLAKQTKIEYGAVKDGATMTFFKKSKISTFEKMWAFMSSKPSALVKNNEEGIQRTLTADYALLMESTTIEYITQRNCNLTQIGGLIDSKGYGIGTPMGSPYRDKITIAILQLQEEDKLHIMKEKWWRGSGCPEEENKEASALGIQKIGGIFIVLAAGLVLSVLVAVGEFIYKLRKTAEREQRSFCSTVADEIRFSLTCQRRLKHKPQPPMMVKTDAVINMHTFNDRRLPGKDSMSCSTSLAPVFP

For `O=C(O)c1cccc([C@H]2CCN[C@@H]2C(=O)O)c1` [Analog 1], on AMPA receptors [1], the IC50 was 51 µM. Also, the “KA IC50” value on KA receptors [2] was 22 µM. Besides, on NMDA receptors [3], the inhibition constant (Ki) was 6 µM.

With `O=C(O)c1ccc([C@H]2CCN[C@@H]2C(=O)O)cc1` [Analog 2, (2S,3R)-3-(4-Carboxyphenyl)pyrrolidine-2-carboxylic Acid], the figures for the 50% inhibitory concentration (IC50) at AMPA receptors [4] and on NMDA receptors [6] (read-out: affinity for the NMDA receptors (IC50)) were > 100 µM and 8.5 µM, respectively. Also, at KA receptors [5], the “KA IC50” value is >100 µM. Moreover, the Ki is 8.5 µM on NMDA receptors [6], > 100 µM on GluK1, > 100 µM at GluK2 and > 100 µM at GluK3. The “NMDA, value in square brackets under Ki (pKi ± spread)” value at NMDA receptors [6] is “[5.07 ± 0.04]”. The “functional character at GluN1/GluN2A-D” value in the assay on GluN1/GluN2A-D is reported as “antagonist”.

“Conantokin G (GEEELQENQELIREKSN; ends and bridges not checked; UniProt P07231 81-97, looked up)”: in the assay with GluN1/GluN2B, the “preference for GluN1/GluN2B over GluN1/GluN2C and GluN1/2D” value was 10 fold; the “selectivity for GluN1/GluN2B over GluN1GluN2A” value is given as 100 fold.

By IC50 is commonly meant the midpoint of a concentration-inhibition curve. For orientation: Ki means a measure of affinity in units of concentration, obtained from inhibition or displacement.
